What was measured:
[1] = target: WEE1 (Homo sapiens, UniProt P30291); experiment: LanthaScreen Eu Kinase Binding Assay, WEE1
Method: (§1) Binding of the tracer to the kinase is detected using a europium-labeled anti-GST antibody, which binds to the fused tag on the kinase protein. […] Inhibitor binding to the kinase competes with tracer binding, resulting in loss of FRET from the donor/acceptor pairs.
(§2) Kinase/Antibody Mixtures and Tracer are diluted to a 2× and 4× working concentration, respectively in this same buffer. […] 0% displacement (no known inhibitor) and 100% displacement (highest concentration of known inhibitor) controls were included on each plate for maximum and minimum Emission Ratio determination, respectively. Dasatinib was used for both PKMYT1 and WEE1 as the known inhibitor.
(§3) IC50 determination was performed using a non-linear regression, variable slope (four parameter), inhibitor v. response equation (Prism 9.0).

[2] = target: T1, PKMYT1 (Homo sapiens, UniProt Q99640); experiment: LanthaScreen Eu Kinase Binding Assay, PKMYT1
T1 sequence (Q99640 1-499): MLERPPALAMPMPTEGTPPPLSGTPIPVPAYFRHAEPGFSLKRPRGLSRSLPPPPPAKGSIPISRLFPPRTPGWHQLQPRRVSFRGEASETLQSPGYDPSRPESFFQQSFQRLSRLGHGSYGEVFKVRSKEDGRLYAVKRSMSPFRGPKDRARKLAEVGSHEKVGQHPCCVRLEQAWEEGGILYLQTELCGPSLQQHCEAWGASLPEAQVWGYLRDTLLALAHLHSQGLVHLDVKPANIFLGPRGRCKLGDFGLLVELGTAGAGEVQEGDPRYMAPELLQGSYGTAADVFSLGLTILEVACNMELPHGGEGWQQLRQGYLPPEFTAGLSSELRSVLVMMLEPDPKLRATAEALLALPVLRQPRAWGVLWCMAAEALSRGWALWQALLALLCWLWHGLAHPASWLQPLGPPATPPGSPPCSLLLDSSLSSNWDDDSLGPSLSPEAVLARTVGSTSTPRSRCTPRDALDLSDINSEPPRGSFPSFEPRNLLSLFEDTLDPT
Method: as §1, §2, §3

Chain of WEE1 (P30291 whole entry): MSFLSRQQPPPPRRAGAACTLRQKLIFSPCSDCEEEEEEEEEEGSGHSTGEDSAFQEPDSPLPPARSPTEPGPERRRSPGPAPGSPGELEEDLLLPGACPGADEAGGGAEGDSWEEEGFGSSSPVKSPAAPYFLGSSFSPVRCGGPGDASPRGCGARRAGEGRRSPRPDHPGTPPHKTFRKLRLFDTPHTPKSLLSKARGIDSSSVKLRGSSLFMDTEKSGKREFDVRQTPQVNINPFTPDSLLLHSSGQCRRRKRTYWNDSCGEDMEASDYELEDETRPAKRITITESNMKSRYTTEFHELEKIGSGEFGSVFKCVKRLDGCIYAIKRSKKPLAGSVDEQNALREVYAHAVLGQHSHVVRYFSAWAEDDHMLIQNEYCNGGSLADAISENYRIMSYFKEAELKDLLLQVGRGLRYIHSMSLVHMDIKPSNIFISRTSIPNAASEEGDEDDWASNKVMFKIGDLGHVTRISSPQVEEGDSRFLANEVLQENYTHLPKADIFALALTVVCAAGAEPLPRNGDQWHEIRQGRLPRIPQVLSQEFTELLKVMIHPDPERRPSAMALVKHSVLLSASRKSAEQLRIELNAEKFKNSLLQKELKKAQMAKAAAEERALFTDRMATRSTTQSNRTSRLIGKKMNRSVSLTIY

## Cc1ccc(O)c(C)c1-c1nc(N(C)CCO)cc2c(N)ncnc12 (racemic) [Compound 47-A, 3-(4-amino-6-((2-hydroxyethyl)(methyl)amino)pyrido[3,4-d]pyrimidin-8-yl)-2,4-dimethylphenol]
[1]
  IC50: > 1000 nM
[2]
  IC50: 10 to 100 nM

## CNc1cc2c(N)ncnc2c(-c2c(C)ccc(O)c2C)n1 (single isomer, unassigned) [Compound 1-B]
[1]
  IC50: > 1000 nM
[2]
  IC50: 10 to 100 nM

## Cc1ccc(O)c(C)c1-c1nc(N2CCC(F)(F)C2)cc2c(N)ncnc12 (single isomer, unassigned) [Compound 2-B]
[1]
  IC50: 100 to 1000 nM
[2]
  IC50: < 10 nM

## Cc1ccc(O)c(C)c1-c1nc(N2CC[C@@H](O)C2)cc2c(N)ncnc12 (single isomer, unassigned) [Compound 3-B]
[1]
  IC50: > 1000 nM
[2]
  IC50: < 10 nM

## Cc1ccc(O)c(C)c1-c1nc(N2CC[C@H](O)C2)cc2c(N)ncnc12 (single isomer, unassigned) [Compound 4-B]
[1]
  IC50: > 1000 nM
[2]
  IC50: 10 to 100 nM

## Cc1ccc(O)c(C)c1-c1nc(N2CC(F)(F)C2)cc2c(N)ncnc12 (single isomer, unassigned) [Compound 5-B]
[1]
  IC50: > 1000 nM
[2]
  IC50: 10 to 100 nM

## Cc1ccc(O)c(C)c1-c1nc(N2CCCC2)cc2c(N)ncnc12 (single isomer, unassigned) [Compound 6-B]
[1]
  IC50: > 1000 nM
[2]
  IC50: < 10 nM

## Cc1ccc(O)c(C)c1-c1nc(N2CCOCC2)cc2c(N)ncnc12 (single isomer, unassigned) [Compound 7-B]
[1]
  IC50: > 1000 nM
[2]
  IC50: < 10 nM

## Cc1ccc(O)c(C)c1-c1nc(N=S(C)(C)=O)cc2c(N)ncnc12 (single isomer, unassigned) [Compound 8-B]
[1]
  IC50: > 1000 nM
[2]
  IC50: 10 to 100 nM

## COCCN(C)c1cc2c(N)ncnc2c(-c2c(C)ccc(O)c2C)n1 (single isomer, unassigned) [Compound 9-B]
[1]
  IC50: > 1000 nM
[2]
  IC50: 10 to 100 nM

## Cc1ccc(O)c(C)c1-c1nc(N(C)C)cc2c(N)ncnc12 (single isomer, unassigned) [Compound 10-B]
[1]
  IC50: > 1000 nM
[2]
  IC50: < 10 nM

## Cc1ccc(O)c(C)c1-c1nc(N2CCC(O)CC2)cc2c(N)ncnc12 (single isomer, unassigned) [Compound 11-B]
[1]
  IC50: > 1000 nM
[2]
  IC50: < 10 nM

## Cc1ccc(O)c(C)c1-c1nc(N(C)C(C)C)cc2c(N)ncnc12 (single isomer, unassigned) [Compound 12-B]
[1]
  IC50: > 1000 nM
[2]
  IC50: < 10 nM

## Cc1ccc(O)c(C)c1-c1nc(N2CC[C@](C)(O)C2)cc2c(N)ncnc12 (single isomer, unassigned) [Compound 13-E]
[1]
  IC50: > 1000 nM
[2]
  IC50: 10 to 100 nM

## Cc1ccc(O)c(C)c1-c1nc(N[C@H]2C[C@H](O)C2)cc2c(N)ncnc12 (single isomer, unassigned) [Compound 15-B]
[1]
  IC50: > 1000 nM
[2]
  IC50: 10 to 100 nM

## Cc1ccc(O)c(C)c1-c1nc(NS(C)(=O)=O)cc2c(N)ncnc12 (single isomer, unassigned) [Compound 16-B]
[1]
  IC50: > 1000 nM
[2]
  IC50: 10 to 100 nM

## Cc1ccc(O)c(C)c1-c1nc(C2CC2)cc2c(N)ncnc12 (single isomer, unassigned) [Compound 18-B]
[1]
  IC50: > 1000 nM
[2]
  IC50: < 10 nM

## Cc1ccc(O)c(C)c1-c1nc(-c2cnn(C)c2)cc2c(N)ncnc12 (single isomer, unassigned) [Compound 19-B]
[1]
  IC50: 100 to 1000 nM
[2]
  IC50: < 10 nM

## Cc1ccc(O)c(C)c1-c1nc(N2CCCC(F)(F)C2)cc2c(N)ncnc12 (single isomer, unassigned) [Compound 20-B]
[1]
  IC50: 100 to 1000 nM
[2]
  IC50: < 10 nM

## Cc1ccc(O)c(C)c1-c1nc(N(C)C2CC2)cc2c(N)ncnc12 (single isomer, unassigned) [Compound 21-B]
[1]
  IC50: 100 to 1000 nM
[2]
  IC50: < 10 nM

## Cc1ccc(O)c(C)c1-c1nc(N2CC(C)(CO)C2)cc2c(N)ncnc12 (single isomer, unassigned) [Compound 22-B]
[1]
  IC50: > 1000 nM
[2]
  IC50: 10 to 100 nM

## COC[C@H]1CCN(c2cc3c(N)ncnc3c(-c3c(C)ccc(O)c3C)n2)C1 (single isomer, unassigned) [Compound 23-B]
[1]
  IC50: > 1000 nM
[2]
  IC50: < 10 nM

## COC[C@@H]1CCN1c1cc2c(N)ncnc2c(-c2c(C)ccc(O)c2C)n1 (single isomer, unassigned) [Compound 24-B]
[1]
  IC50: > 1000 nM
[2]
  IC50: 10 to 100 nM

## COC[C@H]1CCN1c1cc2c(N)ncnc2c(-c2c(C)ccc(O)c2C)n1 (single isomer, unassigned) [Compound 25-B]
[1]
  IC50: > 1000 nM
[2]
  IC50: 10 to 100 nM

## COC1CN(c2cc3c(N)ncnc3c(-c3c(C)ccc(O)c3C)n2)C1 (single isomer, unassigned) [Compound 26-B]
[1]
  IC50: > 1000 nM
[2]
  IC50: 10 to 100 nM

## CCN(C)c1cc2c(N)ncnc2c(-c2c(C)ccc(O)c2C)n1 (single isomer, unassigned) [Compound 27-B]
[1]
  IC50: > 1000 nM
[2]
  IC50: < 10 nM

## Cc1ccc(O)c(C)c1-c1nc(N(C)CC(F)F)cc2c(N)ncnc12 (single isomer, unassigned) [Compound 28-B]
[1]
  IC50: > 1000 nM
[2]
  IC50: < 10 nM

## Cc1ccc(O)c(C)c1-c1nc(N(C)CC(F)(F)F)cc2c(N)ncnc12 (single isomer, unassigned) [Compound 29-B]
[1]
  IC50: > 1000 nM
[2]
  IC50: < 10 nM

## Cc1ccc(O)c(C)c1-c1nc(N(C)CC2CC2)cc2c(N)ncnc12 (single isomer, unassigned) [Compound 30-B]
[1]
  IC50: > 1000 nM
[2]
  IC50: < 10 nM

## Cc1ccc(O)c(C)c1-c1nc(-c2ccc(F)cc2F)cc2c(N)ncnc12 (single isomer, unassigned) [Compound 31-B]
[1]
  IC50: 100 to 1000 nM
[2]
  IC50: < 10 nM

## C#Cc1cc2c(N)ncnc2c(-c2c(C)ccc(O)c2C)n1 (single isomer, unassigned) [Compound 33-B]
[1]
  IC50: > 1000 nM
[2]
  IC50: < 10 nM

## Cc1ccc(O)c(C)c1-c1nc(C(=O)N2CCCC2)cc2c(N)ncnc12 (single isomer, unassigned) [Compound 34-B]
[1]
  IC50: > 1000 nM
[2]
  IC50: 100 to 1000 nM

## Cc1ccc(O)c(C)c1-c1nc(CC(=O)N2CCOCC2)cc2c(N)ncnc12 (single isomer, unassigned) [Compound 35-B]
[1]
  IC50: > 1000 nM
[2]
  IC50: 100 to 1000 nM

## CCN(c1cc2c(N)ncnc2c(-c2c(C)ccc(O)c2C)n1)C1CC1 (single isomer, unassigned) [Compound 36-B]
[1]
  IC50: 100 to 1000 nM
[2]
  IC50: < 10 nM

## Cc1ccc(O)c(C)c1-c1nc(N(C)C2CCC2)cc2c(N)ncnc12 (single isomer, unassigned) [Compound 37-B]
[1]
  IC50: 100 to 1000 nM
[2]
  IC50: < 10 nM

## Cc1ccc(O)c(C)c1-c1nc(N2CC[C@]3(CCO3)C2)cc2c(N)ncnc12 (single isomer, unassigned) [Compound 38-B]
[1]
  IC50: > 1000 nM
[2]
  IC50: < 10 nM

## Cc1ccc(O)c(C)c1-c1nc(C(F)(F)F)cc2c(N)ncnc12 (single isomer, unassigned) [Compound 39-B]
[2]
  IC50: 10 to 100 nM

## Cc1ccc(O)c(C)c1-c1nc(C2CCC2)cc2c(N)ncnc12 (single isomer, unassigned) [Compound 40-B]
[1]
  IC50: > 1000 nM
[2]
  IC50: < 10 nM

## Cc1ccc(O)c(C)c1-c1nc(N(C)CCC#N)cc2c(N)ncnc12 (single isomer, unassigned) [Compound 41-B]
[1]
  IC50: > 1000 nM
[2]
  IC50: < 10 nM

## Cc1cc2c(C(N)=O)c(N)n(-c3c(C)ccc(O)c3C)c2nc1C [RP-6306, Lunresertib, reference compound]
[1]
  IC50: 10 to 100 nM

From patent publication US20260285859A1, “BI-CYCLIC PYRIMIDINE COMPOUNDS, METHODS AND USES THEREOF” (Zeno Management, Inc., priority 2023, published 2026)
